# Laboratory results published in US20130137767A1, “Methods and Compositions for Treating Arthritis with Docosahexaenoic Acid” (DSM IP ASSETS B.V., priority 2010, published 2013).
# Key:
# [1] = tested on: Collagen-Induced Arthritis (CIA); experiment: Collagen-Induced Arthritis, EE vs. TG (Example 2): clinical arthritis severity and incidence; format: in vivo, Male DBA/1O1aHsd mice; details: for incidence of disease: day 45
# From the text: The anti-arthritic activity of DHA, DHA/DPAn6 and DHA/EPA, administered as EE or triglyceride oils (TG), in a chronic mouse model of inflammation, Collagen-Induced Arthritis (CIA), was studied. Methods used in this study were similar to those described in Example 1 (CIA-EE Study). Study groups consisted of: Male DBA/1O1aHsd mice were enrolled, quarantined, and feed study diets following the protocols described in Example 1 (CIA-EE Study). EE and TG oils were blended into the base diet to provide 2500 mg/kg PUFA per day (HED approximately 12 g/day). A single dose of PUFA per day (HED approximately 5 g/day). The 1000 mg/kg DHA-EE dose was equivalent to the amount of DHA administered in the DHA/EPA-EE blend. The fat blend the 2500 mg/kg EE diets consisted of approximately: 1 part flax, 12 parts HCOC and 23 parts HO-SAFF; 1000 mg/kg EE diet: 1 part flax, 12 parts HCOC and 32 parts HO-SAFF; 2500 mg/kg DHASCO® oil diet: 1 part flax, 8 parts HCOC, 17 parts HO-SAFF and 15 parts soybean oil; 2500 mg/kg DHA-S oil diet: 1 part flax, 5 parts HCOC, 16 parts HO-SAFF and 6 parts soybean oil. 2500 mg/kg DHA/EPA (Nordic Naturals fish oil) diet: 1 part flax, 21 parts HCOC, 18 parts HO-SAFF and 13 parts soybean oil. The monounsaturate control animals received a fat blend of 1 part flax, 7 parts HCOC and 25 parts HO-SAFF. All study diets provided a total of 7% fat. Animals in the No Disease control and Dexamethasone groups were fed the diet containing OA-EE. Mice received collagen injections on day 0 and day 21, as described previously. Blood samples were collected at day 21 and day 45. At day 45, joints were collected for histology and pathology. Data was analyzed and compared by one-way ANOVA using the Bonferroni post-test to compare treatment groups to respective placebo control and to make comparisons between treatment groups (GraphPad, Prism, Version 4.0). Effects were considered to be statistically significant at p<0.05. Arthritis severity was assessed from day 18 to 45; a score of 0 represented an animal devoid of clinical arthritis symptoms and a score of 5 represented advanced clinical arthritis. Scores from 0-5 (most severe) were assigned to each digit on the fore and hind limbs based on erythema, swelling and mobility the mean arthritis severity per animal was determined.
# anti-collagen antibodies = experiment: CIA EE vs. TG (Example 2): serum anti-collagen antibodies; format: in vivo, Male DBA/1O1aHsd mice; details: for serum anti-collagen antibodies: day 21
# Experimental: Male DBA/1O1aHsd mice were enrolled, quarantined, and feed study diets following the protocols described in Example 1 (CIA-EE Study). EE and TG oils were blended into the base diet to provide 2500 mg/kg PUFA per day (HED approximately 12 g/day). A single dose of PUFA per day (HED approximately 5 g/day). The 1000 mg/kg DHA-EE dose was equivalent to the amount of DHA administered in the DHA/EPA-EE blend. The fat blend the 2500 mg/kg EE diets consisted of approximately: 1 part flax, 12 parts HCOC and 23 parts HO-SAFF; 1000 mg/kg EE diet: 1 part flax, 12 parts HCOC and 32 parts HO-SAFF; 2500 mg/kg DHASCO® oil diet: 1 part flax, 8 parts HCOC, 17 parts HO-SAFF and 15 parts soybean oil; 2500 mg/kg DHA-S oil diet: 1 part flax, 5 parts HCOC, 16 parts HO-SAFF and 6 parts soybean oil. 2500 mg/kg DHA/EPA (Nordic Naturals fish oil) diet: 1 part flax, 21 parts HCOC, 18 parts HO-SAFF and 13 parts soybean oil. The monounsaturate control animals received a fat blend of 1 part flax, 7 parts HCOC and 25 parts HO-SAFF. All study diets provided a total of 7% fat. Animals in the No Disease control and Dexamethasone groups were fed the diet containing OA-EE. Mice received collagen injections on day 0 and day 21, as described previously. Blood samples were collected at day 21 and day 45. At day 45, joints were collected for histology and pathology.
# A reduction in serum anti-collagen antibodies also correlated with a reduction in disease severity. […] (FIG. 12).
smiles,measurement,setting,value
CC/C=C\C/C=C\C/C=C\C/C=C\C/C=C\C/C=C\CCC(=O)OCC [DHA-EE],arthritis severity score as area under the curve (AUC),"[1]; 1000 mg/kg, days 18-45, vs OA-EE (placebo) control, FIG. 8B",significantly reduced arthritis
same,"arthritis severity, comparison between treatment groups","[1]; 2500 mg/kg PUFA, Dexamethasone 0.1 mg/kg",more potent than DHA-EPA-EE
same,arthritis severity score as area under the curve (AUC),"[1]; 2500 mg/kg PUFA, days 18-45, vs monounsaturated or OA-EE (placebo) control, FIG. 8A/B",significantly reduced arthritis
same,incidence of disease,"[1]; 1000 mg/kg, FIG. 9B",73%
same,incidence of disease,"[1]; 2500 mg/kg PUFA, FIG. 9A/B",60%
same,arthritis severity score,"[1]; days 18-45, FIG. 7A/B, dose not stated",reduced arthritis severity
same,serum anti-collagen antibodies,anti-collagen antibodies; 1000 mg/kg,significantly reduced
same,serum anti-collagen antibodies,"anti-collagen antibodies; 2500 mg/kg PUFA, FIG. 12",significantly reduced
same,serum anti-collagen antibody levels,"anti-collagen antibodies; day 45, 2500 mg/kg PUFA, FIG. 12",significantly reduced
